Test results: patent US20040009485A1, “Cellular arrays for the identification of altered gene expression” (priority 2002, published 2004)

Assays:
[1] = tested on: Luxarray 0.5 reporter clones; assay: High density Luxarray 0.5 nalidixic acid perturbation (cooled CCD camera); assay type: cell-based, E. coli; details: 5 μg/ml, 0-8 hr
Description: The clones of Luxarray 0.5 were used to print arrays as described above at a 4×4 density. That is to say that each single spot as in FIG. 3 was replicated 16× in a 4×4 subarray. […] Arrays were printed in triplicate from fresh overnight cultures onto membranes on plates containing LB media. […] Cultures were replaced at 37° C. to continue growing. Images were collected for each array every two hours from 0-8 hr after relocation using a cooled CCD camera (FluorChem 8000: f0.85 lens, 2 min exposure. AlphaInnotech). Spot intensity was determined using ArrayVision™ (Imaging Research, Toronto, Canada).
In contrast, light production from the strain carrying the lac promoter fusion as well as several strains carrying other promoter fusions was decreased.

SOS regulon gene fusions = assay: Stress response of SOS regulon luxCDABE gene fusions (nalidixic acid); assay type: cell-based, E. coli; details: for Nalidixic acid response ratio: 5 μg/ml, 110 minutes, LB, treated/untreated
Description: To test the stress responses, one or two single colonies of each selected strain were used to inoculate 5.0 ml of LB medium containing 150 μg/ml of ampicillin. These cultures were grown overnight at 37° C. then diluted by adding 50 μl or 100 μl of the overnight culture into 10.0 ml of fresh LB medium (without ampicillin) and grown with agitation at 37° C. until the culture was in exponential phase with readings on a Klett-Summerson colorimeter containing the red filter of between 10 and 40. These actively growing cultures were immediately used to initiate a stress response experiment by adding 50 μl of cultures to 50 μl of LB medium containing various concentrations of chemical in the wells a 96 well luminometer plate. This division of the actively growing culture at the time of chemical addition ensured identical populations were present when the stress was imposed. Light production was measured in a Dynex ML3000 luminometer at 37° C. The dimensionless units of light production, relative light units (RLU), are obtained by comparison with the light reading from an internal light-emitting diode. The cycle mode of the ML3000 luminometer, similar to previous descriptions (Van Dyk et al., Appl. Environ. Microbiol. 60:1414-120) was used.
The ability of these promoter-luxCDABE fusions to report activation of the SOS stress response was tested using nalidixic acid, a known, potent chemical inducer. The final concentrations of nalidixic acid were 1, 5, 25, and 125 μg/ml for all but strain DPD2293, which was tested at 80, 40, 20, 10, 5, 2.5, and 1.25 μg/ml.
Specificity of responses was tested by measuring the effect of ethanol on these SOS regulon gene fusions.

## CCn1cc(C(=O)O)c(=O)c2ccc(C)nc21 [Nalidixic acid, nalidixic acid]
[1]; five documented DNA damage-responsive reporter constructs
  reporter expression, high density array: upregulation of expression
[1]; lac promoter fusion and several other promoter fusions
  light production, high density array: decreased
SOS regulon gene fusions; dinF fusion, DPD2247 (lux-a.pk085.a5)
  Nalidixic acid response ratio: 2.2
SOS regulon gene fusions; dinG fusion, DPD2248 (lux-a.pk0024.f5)
  Nalidixic acid response ratio: 2.0
SOS regulon gene fusions; dinP fusion, DPD2249 (lux-a.pk055.a3)
  Nalidixic acid response ratio: 5.0
SOS regulon gene fusions; each of the eight SOS fusion strains, at least three concentrations (1-125 μg/ml; DPD2293 1.25-80 μg/ml)
  bioluminescence compared with untreated culture: increased bioluminescence
SOS regulon gene fusions; recA fusion, DPD2250 (lux-a.pk022.d4)
  Nalidixic acid response ratio: 1.8
SOS regulon gene fusions; recA fusion, DPD2251 (lux-a.pk085.b5)
  Nalidixic acid response ratio: 2.8
SOS regulon gene fusions; ruvA fusion, DPD2293 (lux-a.pk058.f2)
  Nalidixic acid response ratio: 4.6
SOS regulon gene fusions; uvrA fusion, DPD2253 (lux-a.pk01.b6)
  Nalidixic acid response ratio: 1.4
SOS regulon gene fusions; uvrD fusion, DPD2254 (lux-a.pk052.b6)
  Nalidixic acid response ratio: 1.2
